Reference: ChEMBL document CHEMBL1201862, “PubChem BioAssay data set” (2004)
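Following 48 hours of exposure in 96-well plates, responses at five concentrations were used to interpolate endpoints linearly. GI50 is the concentration that inhibits growth by half.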 Active and inactive are the calls of the source. No stated cut-off is given here; in the data, active = GI50 up to about 1.1 µM and inactive = higher.

Tests used:
Test in all cases: inhibition of tumour cell growth, NCI panel, 48 h
A549 = test system: A549
DLD-1 = test system: DLD-1
OVCAR-5 = test system: OVCAR-5
SNB-19 = test system: SNB-19
IGROV-1 = test system: IGROV-1
SK-OV-3 = test system: SK-OV-3
HOP-18 = test system: HOP-18
UACC-62 = test system: UACC-62
DMS-273 = test system: DMS-273
LOX IMVI = test system: LOX IMVI
HCT-15 = test system: HCT-15
HOP-92 = test system: HOP-92
TK-10 = test system: TK-10
K562 = test system: K562
Malme-3M = test system: Malme-3M
786-0 = test system: 786-0
OVCAR-8 = test system: OVCAR-8
MOLT-4 = test system: MOLT-4
NCI-H23 = test system: NCI-H23
SN12C = test system: SN12C
RPMI-8226 = test system: RPMI-8226
M19-MEL = test system: M19-MEL
OVCAR-4 = test system: OVCAR-4
RXF 393 = test system: RXF 393
SF-268 = test system: SF-268
SW-620 = test system: SW-620
CAKI-1 = test system: CAKI-1
HOP-62 = test system: HOP-62
UO-31 = test system: UO-31
M14 = test system: M14
NCI-H226 = test system: NCI-H226
SF-295 = test system: SF-295
KM12 = test system: KM12
HT-29 = test system: HT-29
U-251 = test system: U-251
SK-MEL-5 = test system: SK-MEL-5
SK-MEL-28 = test system: SK-MEL-28
HCC 2998 = test system: HCC 2998
COLO 205 = test system: COLO 205
UACC-257 = test system: UACC-257
ACHN = test system: ACHN
CCRF-CEM = test system: CCRF-CEM
EKVX = test system: EKVX
SNB-78 = test system: SNB-78
NCI-H522 = test system: NCI-H522
OVCAR-3 = test system: OVCAR-3
LXFL 529 = test system: LXFL 529
XF498 = test system: XF498
NCI-H460 = test system: NCI-H460
SF-539 = test system: SF-539
SK-MEL-2 = test system: SK-MEL-2
HCT-116 = test system: HCT-116
A498 = test system: A498
HL-60 = test system: HL-60
SNB-75 = test system: SNB-75
KM-20L2 = test system: KM-20L2
DMS-114 = test system: DMS-114
RXF 631 = test system: RXF 631
SR = test system: SR

## CCC1(OC(C)=O)C(=O)OCc2c1cc1n(c2=O)Cc2cc3ccccc3nc2-1 (centres undefined)
A549
  GI50: 1.16 µM (inactive)
DLD-1
  GI50: > 66.4 µM (inactive)
OVCAR-5
  GI50: 2.37 µM (inactive)
SNB-19
  GI50: 0.962 µM (active)
IGROV-1
  GI50: 7.52 µM (inactive)
SK-OV-3
  GI50: 2.28 µM (inactive)
HOP-18
  GI50: > 34.8 µM (inactive)
UACC-62
  GI50: 0.251 µM (active)
DMS-273
  GI50: 0.388 µM (active)
LOX IMVI
  GI50: 1.01 µM (active)
HCT-15
  GI50: 12.3 µM
HOP-92
  GI50: 24.8 µM (inactive)
TK-10
  GI50: > 100 µM (inactive)
K562
  GI50: 3.1 µM (inactive)
Malme-3M
  GI50: 3.44 µM (inactive)
786-0
  GI50: 0.564 µM (active)
OVCAR-8
  GI50: 2.45 µM (inactive)
MOLT-4
  GI50: 0.264 µM (active)
NCI-H23
  GI50: 0.966 µM (active)
SN12C
  GI50: 0.638 µM (active)
RPMI-8226
  GI50: 4.2 µM (inactive)
M19-MEL
  GI50: 2.48 µM (inactive)
OVCAR-4
  GI50: 41.4 µM (inactive)
RXF 393
  GI50: 2.64 µM (inactive)
SF-268
  GI50: 0.528 µM (active)
SW-620
  GI50: 5.83 µM (inactive)
CAKI-1
  GI50: 1.07 µM (active)
HOP-62
  GI50: 0.316 µM (active)
UO-31
  GI50: 1 µM (active)
M14
  GI50: 0.948 µM (active)
NCI-H226
  GI50: 0.869 µM (active)
SF-295
  GI50: 0.778 µM (active)
KM12
  GI50: 7.6 µM (inactive)
HT-29
  GI50: 3.63 µM (inactive)
U-251
  GI50: 0.289 µM (active)
SK-MEL-5
  GI50: 1.23 µM (inactive)
SK-MEL-28
  GI50: 14 µM (inactive)
HCC 2998
  GI50: 4.42 µM (inactive)
COLO 205
  GI50: 35.1 µM (inactive)
UACC-257
  GI50: 4.45 µM (inactive)
ACHN
  GI50: 0.455 µM (active)
CCRF-CEM
  GI50: 0.163 µM (active)
EKVX
  GI50: 12.8 µM (inactive)
SNB-78
  GI50: > 40.9 µM (inactive)
NCI-H522
  GI50: 1.19 µM (inactive)
OVCAR-3
  GI50: 10.7 µM (inactive)
LXFL 529
  GI50: 15 µM (inactive)
XF498
  GI50: 17.9 µM (inactive)
NCI-H460
  GI50: 0.262 µM (active)
SF-539
  GI50: 0.568 µM (active)
SK-MEL-2
  GI50: > 80 µM (inactive)
HCT-116
  GI50: 2.03 µM (inactive)
A498
  GI50: 2.55 µM (inactive)
HL-60
  GI50: 0.421 µM (active)
SNB-75
  GI50: 1.48 µM (inactive)
KM-20L2
  GI50: 7.01 µM (inactive)
DMS-114
  GI50: 0.611 µM (active)
RXF 631
  GI50: 3.85 µM (inactive)
SR
  GI50: 0.276 µM (active)

## COc1ccccc1NC(=O)C(=O)C1C(=O)Nc2ccccc2[S+]1[O-] (centres undefined)
A549
  GI50: > 100 µM (inactive)
DLD-1
  GI50: > 100 µM (inactive)
OVCAR-5
  GI50: > 100 µM (inactive)
SNB-19
  GI50: > 100 µM (inactive)
IGROV-1
  GI50: > 100 µM (inactive)
SK-OV-3
  GI50: > 100 µM (inactive)
HOP-18
  GI50: > 100 µM (inactive)
UACC-62
  GI50: > 100 µM (inactive)
DMS-273
  GI50: > 100 µM (inactive)
LOX IMVI
  GI50: > 100 µM (inactive)
HCT-15
  GI50: > 100 µM
TK-10
  GI50: > 100 µM (inactive)
K562
  GI50: > 100 µM (inactive)
Malme-3M
  GI50: > 100 µM (inactive)
786-0
  GI50: > 100 µM (inactive)
OVCAR-8
  GI50: > 100 µM (inactive)
MOLT-4
  GI50: > 100 µM (inactive)
NCI-H23
  GI50: > 100 µM (inactive)
SN12C
  GI50: > 100 µM (inactive)
M19-MEL
  GI50: > 100 µM (inactive)
OVCAR-4
  GI50: > 100 µM (inactive)
RXF 393
  GI50: > 100 µM (inactive)
SF-268
  GI50: > 100 µM (inactive)
SW-620
  GI50: > 100 µM (inactive)
CAKI-1
  GI50: > 100 µM (inactive)
HOP-62
  GI50: > 100 µM (inactive)
UO-31
  GI50: > 100 µM (inactive)
M14
  GI50: > 100 µM (inactive)
NCI-H226
  GI50: > 100 µM (inactive)
SF-295
  GI50: > 100 µM (inactive)
KM12
  GI50: > 100 µM (inactive)
HT-29
  GI50: > 100 µM (inactive)
U-251
  GI50: > 100 µM (inactive)
SK-MEL-5
  GI50: > 100 µM (inactive)
SK-MEL-28
  GI50: > 100 µM (inactive)
HCC 2998
  GI50: > 100 µM (inactive)
COLO 205
  GI50: > 100 µM (inactive)
UACC-257
  GI50: > 100 µM (inactive)
ACHN
  GI50: > 100 µM (inactive)
CCRF-CEM
  GI50: > 100 µM (inactive)
EKVX
  GI50: > 100 µM (inactive)
SNB-78
  GI50: > 100 µM (inactive)
NCI-H522
  GI50: > 100 µM (inactive)
OVCAR-3
  GI50: > 100 µM (inactive)
LXFL 529
  GI50: > 100 µM (inactive)
XF498
  GI50: > 100 µM (inactive)
NCI-H460
  GI50: > 100 µM (inactive)
SF-539
  GI50: > 100 µM (inactive)
SK-MEL-2
  GI50: > 100 µM (inactive)
HCT-116
  GI50: > 100 µM (inactive)
A498
  GI50: > 100 µM (inactive)
HL-60
  GI50: > 100 µM (inactive)
SNB-75
  GI50: > 100 µM (inactive)
KM-20L2
  GI50: > 100 µM (inactive)
DMS-114
  GI50: > 100 µM (inactive)
RXF 631
  GI50: > 100 µM (inactive)
SR
  GI50: > 100 µM (inactive)

## CS(=O)(=O)ON1C(=O)c2ccc(N)cc2C1=O
A549
  GI50: > 100 µM (inactive)
DLD-1
  GI50: > 65.8 µM (inactive)
OVCAR-5
  GI50: > 100 µM (inactive)
SNB-19
  GI50: > 100 µM (inactive)
IGROV-1
  GI50: > 100 µM (inactive)
SK-OV-3
  GI50: > 100 µM (inactive)
HOP-18
  GI50: > 100 µM (inactive)
UACC-62
  GI50: > 64 µM (inactive)
DMS-273
  GI50: > 100 µM (inactive)
LOX IMVI
  GI50: > 72.6 µM (inactive)
HCT-15
  GI50: 71.4 µM
HOP-92
  GI50: > 100 µM (inactive)
TK-10
  GI50: > 100 µM (inactive)
K562
  GI50: 42.8 µM (inactive)
Malme-3M
  GI50: > 100 µM (inactive)
786-0
  GI50: > 100 µM (inactive)
OVCAR-8
  GI50: 21.7 µM (inactive)
MOLT-4
  GI50: 21.4 µM (inactive)
NCI-H23
  GI50: > 100 µM (inactive)
SN12C
  GI50: > 100 µM (inactive)
RPMI-8226
  GI50: 23.8 µM (inactive)
M19-MEL
  GI50: > 59.8 µM (inactive)
OVCAR-4
  GI50: > 100 µM (inactive)
RXF 393
  GI50: > 40.9 µM (inactive)
SF-268
  GI50: > 50.6 µM (inactive)
SW-620
  GI50: 52.1 µM (inactive)
HOP-62
  GI50: > 55.5 µM (inactive)
UO-31
  GI50: > 100 µM (inactive)
M14
  GI50: > 87.3 µM (inactive)
NCI-H226
  GI50: > 100 µM (inactive)
SF-295
  GI50: > 100 µM (inactive)
KM12
  GI50: > 100 µM (inactive)
HT-29
  GI50: > 79.3 µM (inactive)
U-251
  GI50: > 100 µM (inactive)
SK-MEL-5
  GI50: > 100 µM (inactive)
SK-MEL-28
  GI50: > 49.4 µM (inactive)
HCC 2998
  GI50: > 100 µM (inactive)
COLO 205
  GI50: 49.5 µM (inactive)
UACC-257
  GI50: > 31.6 µM (inactive)
ACHN
  GI50: > 100 µM (inactive)
CCRF-CEM
  GI50: 16 µM (inactive)
EKVX
  GI50: > 100 µM (inactive)
SNB-78
  GI50: > 100 µM (inactive)
NCI-H522
  GI50: 19.4 µM (inactive)
OVCAR-3
  GI50: > 100 µM (inactive)
LXFL 529
  GI50: > 78.5 µM (inactive)
XF498
  GI50: > 79.1 µM (inactive)
NCI-H460
  GI50: > 100 µM (inactive)
SF-539
  GI50: > 72.9 µM (inactive)
SK-MEL-2
  GI50: > 100 µM (inactive)
HCT-116
  GI50: > 79.8 µM (inactive)
A498
  GI50: > 100 µM (inactive)
HL-60
  GI50: 17.5 µM (inactive)
SNB-75
  GI50: > 100 µM (inactive)
KM-20L2
  GI50: > 100 µM (inactive)
DMS-114
  GI50: > 74.5 µM (inactive)
RXF 631
  GI50: > 100 µM (inactive)
SR
  GI50: 30 µM (inactive)
